This experiment concerns the target T1, human LPA1 (Homo sapiens, UniProt Q92633).
T1 construct: expressed in transfected cells; host or cells: CHO-K1
The experiment in a line: In vitro LPA1 calcium flux antagonist assay - Bioduro protocol. The experiment is classed as cell-based. As to conditions: CHO-K1 cells overexpressing human LPA1 and G15a, LPA challenge at EC80. As for the experimental part: In Vitro LPA1 Calcium Flux Antagonist Assay—Bioduro Protocol
CHO-K1 cells overexpressing human LPA1 and G15a were seeded at a total volume of 20 μL (15000 cells/well) into Matrigel pre-coated 384-well plates (corning −3764) and incubated at 37° C. After overnight incubation, the cells were serum starved for 4 h. Assays were performed in dye loading buffer containing 1× Fluo-8 AM (AAT Bioquest, 21080) and 2.5 mM probenecid (Thermo Fisher, 36400) in HBSS/20 mM Hepes. After cell starvation, the medium was replaced with 20 μL of dye loading buffer and incubated at 37° C., for 30 min. Then 5 μL of 5× compound titrated in dye loading buffer was added to the cells and incubated for 30 min followed by LPA challenge at EC80. Calcium mobilization was measured on a FLIPR Tetra (MSD). For LPA EC80 determination, starved cells were incubated with 20 μL of dye loading buffer for 1 h, then 5 μL of 5×LPA titrated in dye loading buffer was added to the cells. Calcium signals induced by LPA was monitors on a FLIPR.
Percentage inhibition is calculated using the following formula: % Inhibition=100%×(1−(mean RFU of test sample−mean RFU of DMSO)/(mean RFU of LPA control−mean RFU of DMSO)).
Table B3 and Table B4 show the biological activity of compounds in in vitro LPA1 Calcium flux antagonist assay—Bioduro protocol.
Background: Calcium assays in cells follow changes in intracellular calcium, usually with a dye or a luminescent sensor.

[1] abbreviates: calcium mobilization on FLIPR Tetra, read-out: IC50.
Where [2] appears, read: Table B3, read-out: Activity (IC50 class).

Where two headings read alike, the source gives them in different places.

T1 sequence (Q92633 whole entry): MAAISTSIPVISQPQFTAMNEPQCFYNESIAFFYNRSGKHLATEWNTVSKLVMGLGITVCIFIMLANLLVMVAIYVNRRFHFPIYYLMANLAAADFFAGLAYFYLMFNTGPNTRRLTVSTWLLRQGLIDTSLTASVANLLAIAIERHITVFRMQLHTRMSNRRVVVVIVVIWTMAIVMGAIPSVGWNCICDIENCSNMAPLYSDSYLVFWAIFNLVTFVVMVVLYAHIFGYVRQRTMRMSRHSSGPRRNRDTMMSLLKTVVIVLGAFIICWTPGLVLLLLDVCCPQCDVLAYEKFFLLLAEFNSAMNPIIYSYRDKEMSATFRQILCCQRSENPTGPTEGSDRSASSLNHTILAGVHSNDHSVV

In the case of `CCNc1cccc(-c2ccc(NC3(C(=O)O)CCOCC3)cc2COC2CCCC2)c1F` [Compound 278, 4-((2-((cyclopentyloxy)methyl)-3′-(ethylamino)-2′-fluoro-[1,1′-biphenyl]-4-yl)amino)tetrahydro-2H-pyran-4-carboxylic acid], the IC50 by setting is: under setting [1], 36.6 nM; under setting [2], less than 100 nM.

Consider `COc1cc(-c2ccc(NC3(C(=O)O)CCOCC3)cc2COCC(C)C)c(C)c(OC)c1C` [Compound 397], for which the IC50 is 73 nM under setting [1] and less than 100 nM under setting [2].

On to `COc1c(C(C)OC)ccc(-c2ccc(NC3(C(=O)O)CCOCC3)cc2COC2CCCC2)c1C` (single isomer, unassigned) [Compound 241], for which the half-maximal inhibitory concentration (IC50) by setting is: under setting [1], 87 nM; under setting [2], 100 to 1000 nM.

Take `CCCc1cccc(-c2ccc(NC3(C(=O)O)CCOCC3)cc2COC2CCCC2)c1F` [Compound 286]: the 50% inhibitory concentration (IC50) runs as follows: under setting [1], 9.87 nM; under setting [2], less than 100 nM.

Take `COc1cc(-c2ccc(NC3(C(=O)O)CCC(OC)CC3)cc2COC2CCCC2)cc(OC)c1C` (stereo not shown) [Compound 205]: the half-inhibitory concentration (IC50) by setting is: under setting [1], 1260 nM; under setting [2], more than 1000 nM.

As to `CCOc1cccc(-c2ccc(NC3(C(=O)O)CC3)cc2COC2CCCC2)c1C(F)F` [Compound 317], the IC50 under setting [1] is 14 nM and the IC50 under setting [2] was less than 100 nM.

For the compound `COCC(=O)N1CCC(Nc2cc(C)c(-c3cc(OC)cc(OC)c3)c(COC3CCCC3)c2)(C(=O)O)CC1` [Compound 176], the 50% inhibitory concentration (IC50) runs as follows: under setting [1], 883 nM; under setting [2], 100 to 1000 nM.

As for `COc1cc(-c2ccc(NC3(C(=O)O)CCOCC3)c(F)c2COC2CCCC2)c(F)c(OC)c1C` [Compound 227], the IC50 runs as follows: under setting [1], 25 nM; under setting [2], less than 100 nM.

For the compound `COc1cc(-c2ccc(C3(C(=O)O)CC3)cc2COC2Cc3ccccc3C2)cc(OC)c1C` [Compound 118, 1-{2-[(2,3-dihydro-1H-inden-2-yloxy)methyl]-3′,5′-dimethoxy-4′-methyl-[1,1′-biphenyl]-4-yl}cyclopropane-1-carboxylic acid], the IC50 is, setting by setting: under setting [1], 96.4 nM; under setting [2], less than 100 nM.

For the compound `COC(=O)N1CCC(Nc2cc(C)c(-c3cc(OC)ccn3)c(COC3CCCC3)c2)(C(=O)O)CC1` [Compound 171], the IC50 reads like this: under setting [1], more than 10000 nM; under setting [2], more than 1000 nM.

For `COc1cc(-c2ccc(NC3(C(=O)O)CCN(C(C)=O)CC3)cc2COC2CCCC2)cc(OC)c1C` [Compound 139], the IC50 under setting [1] came out at 353 nM and the IC50 under setting [2] lay in the range of 100 to 1000 nM.

Consider `Cc1c(OC2CC2)cccc1-c1ccc(NC2(C(=O)O)CCC(F)(F)CC2)cc1COC1CC1` [Compound 387], for which the IC50 by setting is: under setting [1], 4.39 nM; under setting [2], less than 100 nM.

On to `CCOc1cccc(-c2ccc(OC3(C(=O)O)CCC3)cc2COC2CC2)c1` [Compound 377], for which the 50% inhibitory concentration (IC50) by setting is: under setting [1], more than 10000 nM; under setting [2], more than 1000 nM.

As for `COc1cc(-c2c(C)cc(OC3(C(=O)O)CCOCC3)cc2COC2CCCC2)cc(OC)c1C` [Compound 163], the IC50 is, setting by setting: under setting [1], 382 nM; under setting [2], 100 to 1000 nM.

Regarding `Cc1c(OC2CC2)cccc1-c1ccc(OC2(C(=O)O)CCOCC2)cc1COC1CC1` [Compound 372], the half-inhibitory concentration (IC50) is 57.4 nM under setting [1] and less than 100 nM under setting [2].

With `COc1cc(-c2ccc(NCCC(=O)O)cc2COCCc2ccccc2)cc(OC)c1C` [Compound 106], the IC50 was 3480 nM under setting [1] and more than 1000 nM under setting [2].

For the compound `CCOc1cc(OC)cc(-c2ccc(OC3(C(=O)O)CCOCC3)cc2COC2CCCC2)c1F` [Compound 246], the IC50 under setting [1] turned out to be 24.3 nM and the IC50 under setting [2] is less than 100 nM.

For `COc1cc(-c2ccc(NC3(C(=O)O)CCOCC3)cc2COCC(C)C)c(F)c(OC)c1C` [Compound 336], the concentration for half-maximal inhibition (IC50) under setting [1] came out at 18.8 nM and the IC50 under setting [2] was less than 100 nM.

With `COc1cc(-c2ccc(NC3(C(=O)O)CCOCC3)cc2COC2CCCC2)cc(OC)c1C(C)=O` [Compound 124], the IC50 is 91.6 nM under setting [1] and less than 100 nM under setting [2].

On to `COc1cc(-c2ccc(NC3(C(=O)O)CCOCC3)cc2COC(C)C)c(F)c(OC)c1C` [Compound 352], for which the IC50 reads like this: under setting [1], 75 nM; under setting [2], less than 100 nM.

For the compound `CCOc1cc(OC)cc(-c2ccc(NC3(C(=O)O)CCOCC3)cc2COC2CCCC2)n1` [Compound 363], the IC50 under setting [1] amounted to 4850 nM and the IC50 under setting [2] was more than 1000 nM.

As to `CCOc1cc(OC)cc(-c2ccc(C3(C(=O)O)CC3)cc2COC2CC2)c1F` [Compound 382], the concentration for half-maximal inhibition (IC50) under setting [1] is more than 10000 nM and the concentration for half-maximal inhibition (IC50) under setting [2] was more than 1000 nM.

As to `COc1cc(OC2CC2)c(F)c(-c2ccc(NC3(C(=O)O)CCC(F)(F)CC3)cc2COC2CC2)c1` [Compound 346], the IC50 under setting [1] is 7.24 nM and the IC50 under setting [2] was less than 100 nM.

As for `COc1cc(-c2ccc(NC3(C(=O)O)CC(F)(F)C3)cc2COC2CC2)c(F)c(OC)c1C` [Compound 366], the IC50 by setting is: under setting [1], 55 nM; under setting [2], less than 100 nM.

Regarding `COc1cc(-c2ccc(NC3(C(=O)O)CCOCC3)cc2COC2COc3ccccc32)cc(OC)c1C` (single isomer, unassigned) [Compound 216], the IC50 was 18.6 nM under setting [1] and less than 100 nM under setting [2].

Take `COc1cc(-c2ccc(NCCC(=O)O)cc2OCC2(C)Oc3ccccc3O2)cc(OC)c1C` [Compound 115]: the IC50 runs as follows: under setting [1], 6820 nM; under setting [2], more than 1000 nM.

In the case of `CCOC1CC(Nc2ccc(-c3cc(OC)c(C)c(OC)c3C)c(COC3CCCC3)c2)(C(=O)O)C1` (stereo not shown) [Compound 214], the IC50 is 58.9 nM under setting [1] and less than 100 nM under setting [2].

On to `COc1cc(O)nc(-c2c(C)cc(NC3(C(=O)O)CCOCC3)cc2COC2CCCC2)c1` [Compound 164], for which the IC50 under setting [1] is more than 10000 nM and the IC50 under setting [2] was more than 1000 nM.

`COc1cc(-c2ccc(NC3(C(=O)O)CCOCC3)cc2CCC2CCOC2)cc(OC)c1C` (single isomer, unassigned) [Compound 186, 4-((3′,5′-dimethoxy-4′-methyl-2-(2-(tetrahydrofuran-3-yl)ethyl)-[1,1′-biphenyl]-4-yl)amino)tetrahydro-2H-pyran-4-carboxylic acid]: the IC50 runs as follows: under setting [1], 64.3 nM; under setting [2], less than 100 nM.

On to `COc1cc(-c2ccc(OC3(C(=O)O)CCOCC3)cc2CO[C@@H]2CCOC2)c(F)c(OC)c1C` [Compound 247], for which the IC50 reads like this: under setting [1], 1610 nM; under setting [2], more than 1000 nM.

Consider `CCCCOCc1cc(NC2(C(=O)O)CCOCC2)ccc1-c1ccc(C)c(OCC)c1C` [Compound 399], for which the 50% inhibitory concentration (IC50) runs as follows: under setting [1], 6.41 nM; under setting [2], less than 100 nM.

Regarding `COc1cc(-c2ccc(NC3(C(=O)O)CCOCC3)cc2COC2CCCC2)c(F)c(OC)c1C(C)O` (stereo not shown) [Compound 299], the IC50 by setting is: under setting [1], 38.4 nM; under setting [2], less than 100 nM.

Consider `COC(=O)N1CCC(Nc2cc(C)c(-c3cc(OC)cc(OC)c3)c(COC3CCCC3)c2)(C(=O)O)CC1` [Compound 154], for which the IC50 runs as follows: under setting [1], 224 nM; under setting [2], 100 to 1000 nM.

Consider `O=C(O)C1(Nc2ccc(-c3cccc(OC4CC4)c3C(F)F)c(COC3CCCC3)c2)CC1` [Compound 301], for which the IC50 is, setting by setting: under setting [1], 12.5 nM; under setting [2], less than 100 nM.

Regarding `COc1cc(-c2ccc(NC3(C(=O)O)CCOCC3)cc2COC2Cc3ccccc3C2)cc(OC)c1C` [Compound 111, 4-({2-[(2,3-dihydro-1H-inden-2-yloxy)methyl]-3′,5′-dimethoxy-4′-methyl-[1,1′-biphenyl]-4-yl}amino)oxane-4-carboxylic acid], the IC50 is, setting by setting: under setting [1], 19.8 nM; under setting [2], less than 100 nM.

Turning to `COc1c(C)ccc(-c2ccc(NC3(C(=O)O)CCOCC3)cc2COC2CCCC2)c1C` [Compound 181], the half-maximal inhibitory concentration (IC50) is 55.2 nM under setting [1] and less than 100 nM under setting [2].

Take `COc1cc(-c2ccc(NC3(C(=O)O)CCCOC3)cc2COC2CCCC2)c(C)c(OC)c1C` (single isomer, unassigned) [Compound 201]: the IC50 by setting is: under setting [1], 73.2 nM; under setting [2], less than 100 nM.

With `COc1cc(-c2ccc(OC3(C(=O)O)CCOCC3)cc2COC2CC2)c(F)c(OC)c1C` [Compound 343], the IC50 reads like this: under setting [1], 1130 nM; under setting [2], more than 1000 nM.

As to `COc1cccc(-c2ccc(NC3(C(=O)O)CCOCC3)cc2COC2CCCC2)c1C` [Compound 172], the IC50 is, setting by setting: under setting [1], 82.1 nM; under setting [2], less than 100 nM.

On to `CCOc1cc(-c2ccc(OC3(C(=O)O)CCOCC3)cc2COC2CCCC2)cc(OC)c1C` [Compound 379], for which the IC50 under setting [1] was determined as 67.3 nM and the IC50 under setting [2] was less than 100 nM.

On to `COc1cc(-c2ccc(NC3(C(=O)O)CCCOC3)cc2COC2CCCC2)c(C)c(OC)c1C` (single isomer, unassigned) [Compound 200], for which the IC50 by setting is: under setting [1], 772 nM; under setting [2], 100 to 1000 nM.

Consider `CCOC(=O)N1CCC(Nc2cc(C)c(-c3cc(OC)cc(OC)c3)c(COC3CCCC3)c2)(C(=O)O)CC1` [Compound 155], for which the IC50 by setting is: under setting [1], 252 nM; under setting [2], 100 to 1000 nM.

As to `COc1cc(-c2ccc(NC3(C(=O)O)CC3)cc2COC2Cc3ccccc3C2)c(C)c(OC)c1C(C)=O` [Compound 122], the IC50 under setting [1] was determined as 112 nM and the IC50 under setting [2] fell in the range of 100 to 1000 nM.

Turning to `COc1cc(-c2ccc(NC3(C(=O)O)CCOCC3)cc2COC2CCCC2)c(Cl)c(OC)c1C#N` [Compound 262], the IC50 was 30.8 nM under setting [1] and less than 100 nM under setting [2].

A word on the IC50: it is the concentration needed to halve the response being measured.

These data come from patent US11884627B2, “Compounds and compositions for treating conditions associated with LPA receptor activity” (Lhotse Bio, Inc., priority 2022, dated 2024).
